From patent publication US10787452B2 (Vertex Pharmaceuticals Incorporated, priority 2012, dated 2020)

Test system: HCT116 colorectal cancer cells
Experiment: Cisplatin sensitization assay (96 h cell viability MTS);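 note: compound concentration needed to lower the Cisplatin-alone IC50 by a set fold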
Type: cell-based
Conditions: 96 h MTS, compound plus Cisplatin
In short: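 Test compound and cisplatin were added together as a full matrix of 2-fold serial dilutions, each from a top final concentration of 10 μM. Cells were incubated 96 h at 37° C in 5% CO2, then viability was read by MTS after a further 1 h incubation.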

SMILES | Cisplatin Sensitization Assay
COC1CN(C(=O)C2CCN(c3c(F)cncc3NC(=O)c3c(N)nn4cc(F)cnc34)CC2)C1 [I-G-21, 2-amino-6-fluoro-N-(5-fluoro-4-(4-(3-methoxyazetidine-1-carbonyl)piperidin-1-yl)pyridin-3-yl)pyrazolo[1,5-a]pyrimidine-3-carboxamide] | +++ (Compounds with a Cisplatin sensitization value of <0.02 μM are marked with “+++.”)
CN(C)C1CN(C(=O)C2CCN(c3c(F)cncc3NC(=O)c3c(N)nn4cc(F)cnc34)CC2)C1 [I-G-22, 2-amino-N-(4-(4-(3-(dimethylamino)azetidine-1-carbonyl)piperidin-1-yl)-5-fluoropyridin-3-yl)-6-fluoropyrazolo[1,5-a]pyrimidine-3-carboxamide] | +++ (Compounds with a Cisplatin sensitization value of <0.02 μM are marked with “+++.”)
CN1CC(NC(=O)C2CCN(c3c(F)cncc3NC(=O)c3c(N)nn4cc(F)cnc34)CC2)C1 [I-G-23, 2-amino-6-fluoro-N-(5-fluoro-4-(4-((1-methylazetidin-3-yl)carbamoyl)piperidin-1-yl)pyridin-3-yl)pyrazolo[1,5-a]pyrimidine-3-carboxamide] | +++ (Compounds with a Cisplatin sensitization value of <0.02 μM are marked with “+++.”)
CN1CCC(NC(=O)C2CCN(c3c(F)cncc3NC(=O)c3c(N)nn4cc(F)cnc34)CC2)C1 (stereo not drawn) [I-G-24, 2-amino-6-fluoro-N-(5-fluoro-4-(4-((1-methylpyrrolidin-3-yl)carbamoyl)piperidin-1-yl)pyridin-3-yl)pyrazolo[1,5-a]pyrimidine-3-carboxamide] | +++ (Compounds with a Cisplatin sensitization value of <0.02 μM are marked with “+++.”)
CN1CCN(C(=O)C2(C#N)CCN(c3c(F)cncc3NC(=O)c3c(N)nn4cc(F)cnc34)CC2)CC1 [I-G-25, 2-amino-N-(4-(4-cyano-4-(4-methylpiperazine-1-carbonyl)piperidin-1-yl)-5-fluoropyridin-3-yl)-6-fluoropyrazolo[1,5-a]pyrimidine-3-carboxamide] | +++ (Compounds with a Cisplatin sensitization value of <0.02 μM are marked with “+++.”)
CN(C)CCCNC(=O)C1CCN(c2c(F)cncc2NC(=O)c2c(N)nn3cc(F)cnc23)CC1 [I-G-26, 2-amino-N-(4-(4-((3-(dimethylamino)propyl)carbamoyl)piperidin-1-yl)-5-fluoropyridin-3-yl)-6-fluoropyrazolo[1,5-a]pyrimidine-3-carboxamide] | ++ (Compounds with a Cisplatin sensitization value >0.02 μM but <0.2 μM are marked with “++.”)
CC1(C)CN(C(=O)C2CCN(c3c(F)cncc3NC(=O)c3c(N)nn4cc(F)cnc34)CC2)CCN1 [I-G-27, 2-amino-N-(4-(4-(3,3-dimethylpiperazine-1-carbonyl)piperidin-1-yl)-5-fluoropyridin-3-yl)-6-fluoropyrazolo[1,5-a]pyrimidine-3-carboxamide] | ++ (Compounds with a Cisplatin sensitization value >0.02 μM but <0.2 μM are marked with “++.”)
Nc1nn2cc(F)cnc2c1C(=O)Nc1cncc(F)c1N1CCC(C(=O)N2CCNC3(CC3)C2)CC1 [I-G-28, N-(4-(4-(4,7-diazaspiro[2.5]octane-7-carbonyl)piperidin-1-yl)-5-fluoropyridin-3-yl)-2-amino-6-fluoropyrazolo[1,5-a]pyrimidine-3-carboxamide] | +++ (Compounds with a Cisplatin sensitization value of <0.02 μM are marked with “+++.”)
CN(C)C(=O)C1CCN(c2c(F)cncc2NC(=O)c2c(N)nn3cc(F)cnc23)CC1 [I-G-29, 2-amino-N-(4-(4-(dimethylcarbamoyl)piperidin-1-yl)-5-fluoropyridin-3-yl)-6-fluoropyrazolo[1,5-a]pyrimidine-3-carboxamide] | +++ (Compounds with a Cisplatin sensitization value of <0.02 μM are marked with “+++.”)
CN(C)CCNC(=O)C1CCN(c2c(F)cncc2NC(=O)c2c(N)nn3cc(F)cnc23)CC1 [I-G-30, 2-amino-N-(4-(4-((2-(dimethylamino)ethyl)carbamoyl)piperidin-1-yl)-5-fluoropyridin-3-yl)-6-fluoropyrazolo[1,5-a]pyrimidine-3-carboxamide] | +++ (Compounds with a Cisplatin sensitization value of <0.02 μM are marked with “+++.”)
CN(C)CCN(C)C(=O)C1CCN(c2c(F)cncc2NC(=O)c2c(N)nn3cc(F)cnc23)CC1 [I-G-31, 2-amino-N-(4-(4-((2-(dimethylamino)ethyl)(methyl)carbamoyl)piperidin-1-yl)-5-fluoropyridin-3-yl)-6-fluoropyrazolo[1,5-a]pyrimidine-3-carboxamide] | +++ (Compounds with a Cisplatin sensitization value of <0.02 μM are marked with “+++.”)
Nc1nn2cc(F)cnc2c1C(=O)Nc1cncc(F)c1N1CCC(C(=O)N2CCN(C3COC3)CC2)CC1 [I-G-32, 2-amino-6-fluoro-N-[5-fluoro-4-[4-[4-(oxetan-3-yl)piperazine-1-carbonyl]-1-piperidyl]-3-pyridyl]pyrazolo[1,5-a]pyrimidine-3-carboxamide] | +++ (Compounds with a Cisplatin sensitization value of <0.02 μM are marked with “+++.”)
CNC(=O)C1CCN(c2c(F)cncc2NC(=O)c2c(N)nn3cc(F)cnc23)CC1 [I-G-33, 2-amino-6-fluoro-N-(5-fluoro-4-(4-(methylcarbamoyl)piperidin-1-yl)pyridin-3-yl)pyrazolo[1,5-a]pyrimidine-3-carboxamide] | +++ (Compounds with a Cisplatin sensitization value of <0.02 μM are marked with “+++.”)
CNC1CN(C(=O)C2CCN(c3c(F)cncc3NC(=O)c3c(N)nn4cc(F)cnc34)CC2)C1 [I-G-34, 2-amino-6-fluoro-N-(5-fluoro-4-(4-(3-(methylamino)azetidine-1-carbonyl)piperidin-1-yl)pyridin-3-yl)pyrazolo[1,5-a]pyrimidine-3-carboxamide] | +++ (Compounds with a Cisplatin sensitization value of <0.02 μM are marked with “+++.”)
Nc1nn2cc(F)cnc2c1C(=O)Nc1cncc(F)c1N1CCC(C(=O)N2CCN(C3CCC3)CC2)CC1 [I-G-35, 2-amino-N-(4-(4-(4-cyclobutylpiperazine-1-carbonyl)piperidin-1-yl)-5-fluoropyridin-3-yl)-6-fluoropyrazolo[1,5-a]pyrimidine-3-carboxamide] | +++ (Compounds with a Cisplatin sensitization value of <0.02 μM are marked with “+++.”)
Nc1nn2cc(F)cnc2c1C(=O)Nc1cncc(F)c1N1CCC(C(=O)N2CCOCC2)CC1 [I-G-36, 2-amino-6-fluoro-N-(5-fluoro-4-(4-(morpholine-4-carbonyl)piperidin-1-yl)pyridin-3-yl)pyrazolo[1,5-a]pyrimidine-3-carboxamide] | +++ (Compounds with a Cisplatin sensitization value of <0.02 μM are marked with “+++.”)
Nc1nn2cc(F)cnc2c1C(=O)Nc1cncc(F)c1N1CCC(C(=O)NC2COC2)CC1 [I-G-37, 2-amino-6-fluoro-N-(5-fluoro-4-(4-(oxetan-3-ylcarbamoyl)piperidin-1-yl)pyridin-3-yl)pyrazolo[1,5-a]pyrimidine-3-carboxamide] | ++ (Compounds with a Cisplatin sensitization value >0.02 μM but <0.2 μM are marked with “++.”)
CN1CCN(C(=O)C2CCN(c3c(F)cncc3NC(=O)c3c(N)nn4cc(F)cnc34)CC2)CC12CC2 [I-G-38, 2-amino-6-fluoro-N-(5-fluoro-4-(4-(4-methyl-4,7-diazaspiro[2.5]octane-7-carbonyl)piperidin-1-yl)pyridin-3-yl)pyrazolo[1,5-a]pyrimidine-3-carboxamide] | +++ (Compounds with a Cisplatin sensitization value of <0.02 μM are marked with “+++.”)
COCCN(C)C(=O)C1CCN(c2c(F)cncc2NC(=O)c2c(N)nn3cc(F)cnc23)CC1 [I-G-40, 2-amino-6-fluoro-N-(5-fluoro-4-(4-((2-methoxyethyl)(methyl)carbamoyl)piperidin-1-yl)pyridin-3-yl)pyrazolo[1,5-a]pyrimidine-3-carboxamide] | +++ (Compounds with a Cisplatin sensitization value of <0.02 μM are marked with “+++.”)
Nc1nn2cc(F)cnc2c1C(=O)Nc1cncc(F)c1N1CCC(C(=O)N2CC(O)C2)CC1 [I-G-41, 2-amino-6-fluoro-N-(5-fluoro-4-(4-(3-hydroxyazetidine-1-carbonyl)piperidin-1-yl)pyridin-3-yl)pyrazolo[1,5-a]pyrimidine-3-carboxamide] | +++ (Compounds with a Cisplatin sensitization value of <0.02 μM are marked with “+++.”)
Nc1nn2cc(F)cnc2c1C(=O)Nc1cncc(F)c1N1CCC(C(=O)NCCN2CCC2)CC1 [I-G-42, 2-amino-N-(4-(4-((2-(azetidin-1-yl)ethyl)carbamoyl)piperidin-1-yl)-5-fluoropyridin-3-yl)-6-fluoropyrazolo[1,5-a]pyrimidine-3-carboxamide] | +++ (Compounds with a Cisplatin sensitization value of <0.02 μM are marked with “+++.”)
Nc1nn2cc(F)cnc2c1C(=O)Nc1cncc(F)c1N1CCC(C(=O)N2CC(N3CCCC3)C2)CC1 [I-G-43, 2-amino-6-fluoro-N-(5-fluoro-4-(4-(3-(pyrrolidin-1-yl)azetidine-1-carbonyl)piperidin-1-yl)pyridin-3-yl)pyrazolo[1,5-a]pyrimidine-3-carboxamide] | +++ (Compounds with a Cisplatin sensitization value of <0.02 μM are marked with “+++.”)
Nc1nn2cc(F)cnc2c1C(=O)Nc1cncc(F)c1N1CCC(C(=O)N2CC3CCC(C2)N3)CC1 [I-G-44, N-(4-(4-(3,8-diazabicyclo[3.2.1]octane-3-carbonyl)piperidin-1-yl)-5-fluoropyridin-3-yl)-2-amino-6-fluoropyrazolo[1,5-a]pyrimidine-3-carboxamide] | +++ (Compounds with a Cisplatin sensitization value of <0.02 μM are marked with “+++.”)
C[C@@H]1CN(C(=O)C2CCN(c3c(F)cncc3NC(=O)c3c(N)nn4cc(F)cnc34)CC2)CCN1 [I-G-45, (R)-2-amino-6-fluoro-N-(5-fluoro-4-(4-(3-methylpiperazine-1-carbonyl)piperidin-1-yl)pyridin-3-yl)pyrazolo[1,5-a]pyrimidine-3-carboxamide] | +++ (Compounds with a Cisplatin sensitization value of <0.02 μM are marked with “+++.”)
